Measurements published in ChEMBL document CHEMBL1121427, “Decomposition of pharmacological activity indices into mutually independent components using principal component analysis” (J Med Chem, 1980).

Experiments:
Type in all cases: functional
Set-up in all cases: unit not given here
Streptococcus pyogenes = test: The compound was evaluated for activity against strain Streptococcus hemolyticus
Enterococcus faecalis = test: The compound was evaluated for activity against strain Streptococcus faecalis
Bacillus subtilis = test: Inhibitory activity against Bacillus subtilis
Staphylococcus aureus = test: The compound was evaluated for activity against strain Micrococcus aureus

## COC1/C=C/OC2(C)Oc3c(C)c(O)c4c(O)c(cc(OCC(=O)N(CCCl)CCCl)c4c3C2=O)NC(=O)/C(C)=C\C=C\C(C)C(O)C(C)C(O)C(C)C(OC(C)=O)C1C (centres undefined)
Streptococcus pyogenes
  -Log C: 7.47
Enterococcus faecalis
  -Log C: 5.77
Bacillus subtilis
  -Log C: 6.38
Staphylococcus aureus
  -Log C: 7.24

## COC1/C=C/OC2(C)Oc3c(C)c(O)c4c(O)c(cc(OCC(=O)NC(C)C)c4c3C2=O)NC(=O)/C(C)=C\C=C\C(C)C(O)C(C)C(O)C(C)C(OC(C)=O)C1C (centres undefined)
Streptococcus pyogenes
  -Log C: 7.12
Enterococcus faecalis
  -Log C: 5.9
Bacillus subtilis
  -Log C: 5.41
Staphylococcus aureus
  -Log C: 6.7

## COC1/C=C/OC2(C)Oc3c(C)c(O)c4c(O)c(cc(OCC(=O)NC(C)(C)C)c4c3C2=O)NC(=O)/C(C)=C\C=C\C(C)C(O)C(C)C(O)C(C)C(OC(C)=O)C1C (centres undefined)
Streptococcus pyogenes
  -Log C: 6.43
Enterococcus faecalis
  -Log C: 5.83
Bacillus subtilis
  -Log C: 5.42
Staphylococcus aureus
  -Log C: 6.73

## CCCCN(C)C(=O)COc1cc2c(O)c3c(O)c(C)c4c(c13)C(=O)C(C)(O/C=C/C(OC)C(C)C(OC(C)=O)C(C)C(O)C(C)C(O)C(C)/C=C/C=C(/C)C(=O)N2)O4 (centres undefined)
Streptococcus pyogenes
  -Log C: 8.62
Enterococcus faecalis
  -Log C: 7.22
Bacillus subtilis
  -Log C: 6.35
Staphylococcus aureus
  -Log C: 8.44

## COC1/C=C/OC2(C)Oc3c(C)c(O)c4c(O)c(cc(OCC(=O)N5CCCC5)c4c3C2=O)NC(=O)/C(C)=C\C=C\C(C)C(O)C(C)C(O)C(C)C(OC(C)=O)C1C (centres undefined)
Streptococcus pyogenes
  -Log C: 8.21
Enterococcus faecalis
  -Log C: 6.34
Bacillus subtilis
  -Log C: 5.73
Staphylococcus aureus
  -Log C: 7.26

## COC1/C=C/OC2(C)Oc3c(C)c(O)c4c(O)c(cc(OCC(=O)Nc5ccc(Cl)cc5)c4c3C2=O)NC(=O)/C(C)=C\C=C\C(C)C(O)C(C)C(O)C(C)C(OC(C)=O)C1C (centres undefined)
Streptococcus pyogenes
  -Log C: 6.86
Enterococcus faecalis
  -Log C: 6.39
Bacillus subtilis
  -Log C: 5.64
Staphylococcus aureus
  -Log C: 6.54

## COC1/C=C/OC2(C)Oc3c(C)c(O)c4c(O)c(cc(OCC(=O)N5CCOCC5)c4c3C2=O)NC(=O)/C(C)=C\C=C\C(C)C(O)C(C)C(O)C(C)C(OC(C)=O)C1C (centres undefined)
Streptococcus pyogenes
  -Log C: 7.26
Enterococcus faecalis
  -Log C: 5.84
Bacillus subtilis
  -Log C: 5.74
Staphylococcus aureus
  -Log C: 6.44

## COC1/C=C/OC2(C)Oc3c(C)c(O)c4c(O)c(cc(OCC(=O)N(C)CCC#N)c4c3C2=O)NC(=O)/C(C)=C\C=C\C(C)C(O)C(C)C(O)C(C)C(OC(C)=O)C1C (centres undefined)
Streptococcus pyogenes
  -Log C: 6.97
Enterococcus faecalis
  -Log C: 6.05
Bacillus subtilis
  -Log C: 5.74
Staphylococcus aureus
  -Log C: 6.97

## COC1/C=C/OC2(C)Oc3c(C)c(O)c4c(O)c(cc(OCC(=O)Nc5ccccc5)c4c3C2=O)NC(=O)/C(C)=C\C=C\C(C)C(O)C(C)C(O)C(C)C(OC(C)=O)C1C (centres undefined)
Streptococcus pyogenes
  -Log C: 6.84
Enterococcus faecalis
  -Log C: 6.04
Bacillus subtilis
  -Log C: 5.43
Staphylococcus aureus
  -Log C: 6.92

## CCCN(CC)C(=O)COc1cc2c(O)c3c(O)c(C)c4c(c13)C(=O)C(C)(O/C=C/C(OC)C(C)C(OC(C)=O)C(C)C(O)C(C)C(O)C(C)/C=C/C=C(/C)C(=O)N2)O4 (centres undefined)
Streptococcus pyogenes
  -Log C: 8.22
Enterococcus faecalis
  -Log C: 7.22
Bacillus subtilis
  -Log C: 6.35
Staphylococcus aureus
  -Log C: 8.01

## C#CCN(CCC)C(=O)COc1cc2c(O)c3c(O)c(C)c4c(c13)C(=O)C(C)(O/C=C/C(OC)C(C)C(OC(C)=O)C(C)C(O)C(C)C(O)C(C)/C=C/C=C(/C)C(=O)N2)O4 (centres undefined)
Streptococcus pyogenes
  -Log C: 8.62
Enterococcus faecalis
  -Log C: 7.14
Bacillus subtilis
  -Log C: 6.97
Staphylococcus aureus
  -Log C: 8.44

## CCCCN(CC)C(=O)COc1cc2c(O)c3c(O)c(C)c4c(c13)C(=O)C(C)(O/C=C/C(OC)C(C)C(OC(C)=O)C(C)C(O)C(C)C(O)C(C)/C=C/C=C(/C)C(=O)N2)O4 (centres undefined)
Streptococcus pyogenes
  -Log C: 8.15
Enterococcus faecalis
  -Log C: 7.62
Bacillus subtilis
  -Log C: 6.27
Staphylococcus aureus
  -Log C: 8.62

## CCN(C)C(=O)COc1cc2c(O)c3c(O)c(C)c4c(c13)C(=O)C(C)(O/C=C/C(OC)C(C)C(OC(C)=O)C(C)C(O)C(C)C(O)C(C)/C=C/C=C(/C)C(=O)N2)O4 (centres undefined)
Streptococcus pyogenes
  -Log C: 7.95
Enterococcus faecalis
  -Log C: 7.06
Bacillus subtilis
  -Log C: 6.03
Staphylococcus aureus
  -Log C: 7.95

## COC1/C=C/OC2(C)Oc3c(C)c(O)c4c(O)c(cc(OCC(=O)N(Cc5ccccc5)Cc5ccccc5)c4c3C2=O)NC(=O)/C(C)=C\C=C\C(C)C(O)C(C)C(O)C(C)C(OC(C)=O)C1C (centres undefined)
Streptococcus pyogenes
  -Log C: 7.89
Enterococcus faecalis
  -Log C: 7.49
Bacillus subtilis
  -Log C: 6.89
Staphylococcus aureus
  -Log C: 8.49

## CCCN(CCC)C(=O)COc1cc2c(O)c3c(O)c(C)c4c(c13)C(=O)C(C)(O/C=C/C(OC)C(C)C(OC(C)=O)C(C)C(O)C(C)C(O)C(C)/C=C/C=C(/C)C(=O)N2)O4 (centres undefined)
Streptococcus pyogenes
  -Log C: 8.15
Enterococcus faecalis
  -Log C: 7.15
Bacillus subtilis
  -Log C: 6.53
Staphylococcus aureus
  -Log C: 8.15

## COC1/C=C/OC2(C)Oc3c(C)c(O)c4c(O)c(cc(OCC(=O)N(C)C5CCCCC5)c4c3C2=O)NC(=O)/C(C)=C\C=C\C(C)C(O)C(C)C(O)C(C)C(OC(C)=O)C1C (centres undefined)
Streptococcus pyogenes
  -Log C: 7.98
Enterococcus faecalis
  -Log C: 7.53
Bacillus subtilis
  -Log C: 6.68
Staphylococcus aureus
  -Log C: 8.15

## COC1/C=C/OC2(C)Oc3c(C)c(O)c4c(O)c(cc(OCC(=O)N5CCOCC5C)c4c3C2=O)NC(=O)/C(C)=C\C=C\C(C)C(O)C(C)C(O)C(C)C(OC(C)=O)C1C (centres undefined)
Streptococcus pyogenes
  -Log C: 8.36
Enterococcus faecalis
  -Log C: 6.22
Bacillus subtilis
  -Log C: 6.67
Staphylococcus aureus
  -Log C: 7.92

## COC1/C=C/OC2(C)Oc3c(C)c(O)c4c(O)c(cc(OCC(=O)N(C)C(C)(C)C)c4c3C2=O)NC(=O)/C(C)=C\C=C\C(C)C(O)C(C)C(O)C(C)C(OC(C)=O)C1C (centres undefined)
Streptococcus pyogenes
  -Log C: 8.31
Enterococcus faecalis
  -Log C: 7.62
Bacillus subtilis
  -Log C: 6.66
Staphylococcus aureus
  -Log C: 8.62

## CNC(=O)COc1cc2c(O)c3c(O)c(C)c4c(c13)C(=O)C(C)(O/C=C/C(OC)C(C)C(OC(C)=O)C(C)C(O)C(C)C(O)C(C)/C=C/C=C(/C)C(=O)N2)O4 (centres undefined)
Streptococcus pyogenes
  -Log C: 5.09
Enterococcus faecalis
  -Log C: 5.89
Bacillus subtilis
  -Log C: 7.11
Staphylococcus aureus
  -Log C: 6.68

## COC1/C=C/OC2(C)Oc3c(C)c(O)c4c(O)c(cc(OCC(=O)N(c5ccccc5)c5ccccc5)c4c3C2=O)NC(=O)/C(C)=C\C=C\C(C)C(O)C(C)C(O)C(C)C(OC(C)=O)C1C (centres undefined)
Streptococcus pyogenes
  -Log C: 7.55
Enterococcus faecalis
  -Log C: 7.65
Bacillus subtilis
  -Log C: 7.05
Staphylococcus aureus
  -Log C: 8.65

## COC1/C=C/OC2(C)Oc3c(C)c(O)c4c(O)c(cc(OCC(=O)N(C)Cc5ccccc5)c4c3C2=O)NC(=O)/C(C)=C\C=C\C(C)C(O)C(C)C(O)C(C)C(OC(C)=O)C1C (centres undefined)
Streptococcus pyogenes
  -Log C: 8.16
Enterococcus faecalis
  -Log C: 7.09
Bacillus subtilis
  -Log C: 6.37
Staphylococcus aureus
  -Log C: 8.24
